Experimental data published in the supplement of paper PMC10307832.

What was measured:
Experiment in all cases: relative viability (nuclei count vs DMSO), 5 days (fraction); higher = more cells survive
[1] = compound: Nc1nc(Nc2ccc3c(c2)CC[C@@H](N2CCCC2)CC3)nn1-c1cc2c(nn1)-c1ccccc1CCC2 [Bemcentinib] + O=C(CCCCCCC(=O)Nc1ccccc1)NO [Vorinostat] (partner 1 µM)
Outline: (§1)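 Five library-drug doses in √10 steps were combined with a fixed anchor-drug dose, or a single drug was given alone, by pin tool to lung cancer cell lines in 1536-well plates the day after seeding. Nuclei were stained and counted after 5 days. Relative viability is the nuclei count in treated wells over that in vehicle wells, taken as the median of duplicate plates.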

[2] = compound: CC1=CC=C(C=C1)C(=O)CN2C3=C(CCCC3)SC2=N [Pifithrin_alpha] + Cc1nc(Nc2ncc(C(=O)Nc3c(C)cccc3Cl)s2)cc(N2CCN(CCO)CC2)n1 [Dasatinib] (partner 0.075 µM)
Outline: as §1

[3] = compound: CNC(=O)c1ccccc1Sc1ccc2c(/C=C/c3ccccn3)n[nH]c2c1 [Axitinib] + COc1cccc2cc(-c3nc([C@H]4CC[C@H](C(=O)O)CC4)n4ncnc(N)c34)[nH]c12 [OSI-027] (partner 0.5 µM)
Outline: as §1

[4] = compound: CC1=CC=C(C=C1)C(=O)CN2C3=C(CCCC3)SC2=N [Pifithrin_alpha] + CCNC(=O)c1noc(-c2cc(C(C)C)c(O)cc2O)c1-c1ccc(CN2CCOCC2)cc1 [Luminespib] (partner 0.01 µM)
Outline: as §1

| Cell Line | relative viability ([1]; first compound 0.04 µM) | relative viability ([1]; first compound 0.1265 µM) | relative viability ([1]; first compound 0.4 µM) | relative viability ([1]; first compound 1.265 µM) | relative viability ([1]; first compound 4 µM) | relative viability ([2]; first compound 1 µM) | relative viability ([2]; first compound 3.162 µM) | relative viability ([2]; first compound 10 µM) | relative viability ([2]; first compound 31.62 µM) | relative viability ([2]; first compound 100 µM) | relative viability ([3]; first compound 0.005 µM) | relative viability ([3]; first compound 0.01581 µM) | relative viability ([3]; first compound 0.05 µM) | relative viability ([3]; first compound 0.5 µM) | relative viability ([4]; first compound 1 µM) | relative viability ([4]; first compound 3.162 µM) | relative viability ([4]; first compound 10 µM) | relative viability ([4]; first compound 100 µM) | relative viability ([3]; first compound 0.1581 µM) | relative viability ([4]; first compound 31.62 µM) |
| --- | --- | --- | --- | --- | --- | --- | --- | --- | --- | --- | --- | --- | --- | --- | --- | --- | --- | --- | --- | --- |
| NCI-H520 | 0.678 | 0.902 | 0.83 | 0.626 | 0.761 | 0.299 | 0.204 | 0.18 | 0.243 | 0.263 | 0.234 | 0.218 | 0.216 | 0.24 | 0.213 | 0.21 | 0.24 | 0.223 | – | – |
| NCI-H522 | 0.87 | 0.959 | 0.859 | 0.799 | 0.907 | 0.972 | 0.887 | 0.779 | 0.757 | 0.816 | 0.765 | 0.665 | 0.572 | 0.647 | – | 1.16 | 1.26 | 1.11 | 0.857 | 0.993 |
| NCI-H596 | 0.582 | 0.449 | 0.721 | 0.391 | 0.674 | 0.54 | 0.588 | 0.583 | 0.494 | 0.503 | 0.893 | 0.649 | 0.855 | 0.556 | 0.991 | 1.1 | 1.02 | 0.566 | 0.797 | 0.507 |
| NCI-H647 | 0.649 | 0.55 | 0.594 | 0.424 | 0.675 | 0.218 | 0.17 | 0.141 | 0.153 | 0.153 | 0.703 | 0.617 | 0.69 | 0.787 | 0.356 | 0.26 | 0.157 | 0.177 | 0.551 | 0.103 |
